One experiment relates to M tuberculosis. Description: Activity against M tuberculosis. It is filed as cell-based.
For a further experiment, the target named is T1, Aβ40 (Homo sapiens, UniProt P05067).
T1 construct: The 40 AA long isoform, Aβ40, is formed predominantly
Description: Thioflavin T (ThT) fluorescence assay of Aβ40 fibril formation in presence of LL-37 or peptoid. The format is biochemical.

The subject of a further experiment is C. albicans. Put plainly: Activity against C. albicans. The format is cell-based.
Another experiment relates to HSV-1. Description: Antiviral activity (inactivation) against HSV-1. The format is cell-based, Herpes Simplex Virus-1.
A further experiment has as its system P. gingivalis. Description: Antimicrobial activity against P. gingivalis. The format is cell-based, Porphyromonas gingivalis.
A further experiment has as its system P. aeruginosa. Put plainly: Activity against P. aeruginosa. The format is cell-based.
The subject of a further experiment is S. aureus. Put plainly: Activity against S. aureus. The format is cell-based.
Experiment [1] in a line: ThT fibril formation assay comparing kinetics of Aβ40 wild-type and Aβ40-E22Δ (Osaka) mutant. Particulars: standard ThT fibril formation conditions, peptide alone. On the procedure:
FIG. 5 depicts a ThT fibril formation assay comparing fibril formation kinetics of Aβ40 wild-type and the Aβ40-E22Δ (Osaka) FAD mutant.
FIG. 5 illustrates exemplary data of preliminary experiments in which Aβ40-E22Δ was synthesized and subjected to standard conditions utilized in ThT fibril formation assays. FIG. 5 illustrates that the deletion of the E22 residue leads to a pronounced acceleration of fibril formation, which dropped from 196±7 min with Aβ40-WT to 38±1 min with Aβ40-E22Δ. The Aβ40-E22Δ mutant is much more amyloidogenic than Aβ40-WT, which may complicate efforts to block its amyloidogenicity.

Entries after “also recorded” stand apart in the source; their conditions may differ.

T1 sequence (P05067 672-711 limits assumed): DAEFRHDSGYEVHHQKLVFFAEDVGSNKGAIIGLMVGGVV

As to H-(NLys-Nspe-Nspe)4-NH2 [Peptoid 1], the activity against pathogen result with M tuberculosis, in the experiment with C. albicans, in the experiment with P. aeruginosa and in the experiment on S. aureus was “active” each time. Moreover, the “anti-amyloid activity (prevention of Aβ amyloid formation)” value on Aβ40 (FIG. 1C, 20 μM peptide/peptoid concentrations) is “shares the same anti-amyloid activity”. In addition, in the experiment on HSV-1, the “concentration with antiviral activity / totally inactivating HSV-1 virus” value worked out at 4 µg/mL. The “concentration with antimicrobial activity / killing P. gingivalis bacteria” value in the experiment with P. gingivalis worked out at 4 µg/mL.

With “LL-37: peptide produced by the human innate immune system, ~4500 g/mol, 37 amino acids”, in the experiment with Aβ40 (1:1 equimolar ratio to wildtype Aβ40), the “Aβ fibril formation (ThT fluorescence)” value was “totally prevented from forming Aβ fibrils; also recorded: blocks fibril formation”. Also, the “kinetics of Aβ fibril formation (ThT fluorescence)” value in the experiment with Aβ40 (lower relative (sub-stoichiometric) molar amounts vs Aβ40) is “slow the kinetics of fibril formation; also recorded: slows it down in a dose-dependent manner”. In addition, in the experiment with Aβ40 (sub-stoichiometric LL-37 addition), the “final fluorescence at endpoint in ThT fibril formation assay” value is recorded as “higher fluorescence output at endpoint”.

As to “Aβ40-E22Δ: FAD-causing Aβ40 variant with deletion of E22, known as the Osaka mutation (DAEFRHDSGYEVHHQKLVFFADVGSNKGAIIGLMVGGVV; Amyloid-beta protein 40; UniProt P05067 672-711, looked up, variant E22*)”, in experiment [1], the “fibril formation (time) in ThT assay” value was determined as 38 ± 1 min.

For the substance “Aβ40-WT: 40 amino acid long wild-type isoform of Amyloid β”, the “fibril formation (time) in ThT assay” value in experiment [1] worked out at 196 ± 7 min.

For the origin of these results see patent US20230390222A1, “Amyloid-Binding Peptoids with Broad-Spectrum Antiviral, Antibacterial, and Antifungal Activity” (The Board of Trustees of the Leland Stanford Junior …, priority 2021, published 2023).
